Key:
[1] = tested on: human endothelial monolayers; experiment: F-actin immunofluorescent microscopy (cortical actin ring); type: cell-based; conditions: HGF 20 ng/ml
Method: Endothelial cell monolayers grown on gelatinized cover slips were rinsed with M199 and incubated with agonists in the same medium in a 37° C. incubator (5% CO2). Monolayers were then rinsed with PBS (3×2 min), fixed in 4% paraformaldehyde for 10 min, again rinsed with PBS (3×2 min), and permeabilized with 0.25% Triton X-100 for 5 min. Cells were then washed briefly with PBS (3×2 min), blocked with PBS containing 2% BSA for 30 min and incubated with 1 Unit/mL of Texas Red-X phalloidin (Molecular Probes, Eugene, Oreg.), β-catenin antibody (Transduction Laboratories, Lexington, Ky.), glycogen synthase kinase-3 β (GSK-3β) (Santa Cruz Biotechnology, Inc., Santa Cruz, Calif.), or mono-phosphorylated MLC antisera (see Garcia, J. G. N. et al. (2001) J. Clin. Invest. 108:689-711) for 1 hr. After washing with PBS (3×2 min), cover slips were mounted on slides using SlowFade mounting medium (Molecular Probes). Cells were analyzed using a 60× oil objective on a Nikon Eclipse TE 300 microscope. Images were captured by Sony Digital Photo camera DKC 5000. […]
The effect of HGF on the spatial localization of polymerized actin in human endothelial monolayers was investigated by immunofluorescent microscopy. […] F-actin staining was assessed with Texas red phalloidin and myosin light chain staining evaluated with anti-monophosphorylated myosin light chain polyclonal antibody.

[2] = tested on: p42/44 ERK; experiment: p42/44 ERK activation by phospho-specific immunoblotting; type: cell-based, human; conditions: HGF 20 ng/ml
Method: (§1) Endothelial cell monolayers grown to confluence in 12-well plates and challenged with HGF were lysed with 100 μl of 2×SDS sample buffer, and cell lysates were transferred into microcentrifuge tubes and boiled for 5 min. After a brief spin, proteins from 10 μl cell lysates were separated on 12% SDS-PAGE and transferred to nitrocellulose (Schleicher & Schuell, Keene, N.H.) (30V, 18 h). After blocking with PBST (PBS with 0.1% Tween 20) containing 5% non-fat milk for 1 hr, nitrocellulose blots were reacted with primary antibodies diluted in PBST containing 5% BSA for 1 hr, washed with PBST (3×10 min), incubated with peroxidase-conjugated secondary antibodies (goat anti-rabbit IgG, 1:10,000 dilution, Sigma; or goat anti-mouse IgG, 1:10,000 dilution, Bio-Rad Labs, Richmond, Calif.) diluted in PBST with 5% non-fat milk for 1 hr and again washed with PBST (3×10 min). Finally, immunoreactive proteins were detected using ECL. The relative intensities of the protein bands were quantified by scanning densitometry.
(§2) The MAP family of kinases (ERK1/2 and p38) are actively involved in agonist-induced endothelial cell actin reorganization and barrier regulation (Verin, A. D. et al. (2000) Am. J. Physiol: Lung Cell Molec. Phys. 279:L360-L370, 2000; Garcia, J. G. N. et al. (2001) J. Clin. Invest. 108:689-711) and have been noted to participate in HGF-mediated cell activation (Liang, C. C. and Chen, H. C. (2001) J. Biol. Chem. 276:21146-21152). These reports were confirmed in human endothelial cell monolayers incubated with HGF (20 ng/ml, for 1, 2, 5, 10, 15, 20, 30, 60, or 120 min) where activation of p42/44 ERK and p38 MAPK by HGF was detected by immunoblotting with antibodies that only recognize the phosphorylated (activated) forms of ERK or p38 MAPK. The activation of ERKs was evident at 5 min, maximal after 10-15 min with a gradual decline thereafter, but remaining sustained above basal levels for more than 2 hrs. […] The onset of HGF-mediated activation of p38 MAPK was similar to ERK, with plateau at 10-15 min. However, the duration of this response was much more truncated than ERK activation, beginning to decline by 20 min and returning to basal value by 1 hr.

[3] = tested on: GSK3β; experiment: GSK3β Ser9 phosphorylation by western immunoblot; type: cell-based, human; conditions: after HGF treatment
Method: as §1
HGF has been reported to increase the phosphorylation status of GSK3β, a multi-functional enzyme involved in glycogen synthesis and protein synthesis regulation activity in mammary epithelial cells (Papkoff, J. and Aikawa, M. (1998) Biochem. Biophys. Res. Commun. 247:851-858). Of potential importance to barrier regulation, GSK3β phosphorylation results in enzymatic inactivation and increases the level of uncomplexed cellular β-catenin (Papkoff, J. (1997) J. Biol. Chem. 272(7):4536-4543). […] Concomitant with HGF-induced TER augmentation, increases in phosphorylation of GSK3β after HGF treatment was detected by increased immunofluorescence and prominent by Western blotting at 2 min, with peak intensity leveling off at 15-30 min, although remaining above basal levels for more than 2 hr. […]

[4] = tested on: p38 MAPK; experiment: p38 MAPK activation by phospho-specific immunoblotting; type: cell-based, human; conditions: HGF 20 ng/ml
Method: as §1
as §2, with “However, the duration of this response was much more truncated than ERK activation, beginning to decline by 20 min and returning to basal value by 1 hr.” left out

Substance: HGF: heparin-binding glycoprotein, multifunctional cytokine, ligand of c-Met; purchased from R&D Systems
- F-actin staining [1]: rapid enhancement of F-actin staining spatially confined to the cortical cytoskeletal ring
- duration of ERK activation above basal levels [2]: more than 2 hrs
- time at which ERK activation is evident [2]: 5 min
- time of maximal ERK activation [2]: 10 to 15 min
- duration of GSK3β phosphorylation above basal levels [3]: more than 2 hr
- time of peak GSK3β phosphorylation [3]: 15 to 30 min
- time at which GSK3β phosphorylation is prominent ([3]; Western blotting): 2 min
- time at which p38 MAPK activation begins to decline [4]: ≤ 20 min
- time of plateau of p38 MAPK activation [4]: 10 to 15 min
- time of return of p38 MAPK activation to basal value [4]: ≤ 1 h

Source: patent US20050004029A1, “Methods and compositions for treating vascular leak using hepatocyte growth factor” (priority 2001, published 2005)
